Measured values from publication PMC4766415 (Nature Communications, 2016).

Experiments:
[1] = tested on: Rat Schwannoma cells (RN22); assay: Caspase-3 activation by Y78F-TTR oligomers in RN22 cells; details: Y78F-TTR aggregates 2 μM formed with 20 μM compound; 24 h exposure
[2] = tested on: WT and V30M-TTR tetramers in plasma; assay: TTR tetramer stability in human plasma by IEF under semi-denaturing conditions; format: biochemical; details: 1.4 mM, overnight 4 °C, 4 M urea
[3] = tested on: T1, human V30M-TTR; assay: T4 competition in plasma of transgenic mice after oral tolcapone; format: in vivo; details: 30 to 300 mg kg^−1 by gavage
T1 construct: plasma samples from the transgenic mice expressing human V30M-TTR; from tissue; host or cells: plasma of transgenic mice expressing human V30M-TTR
Experimental: The animals were killed 1 h after the last dose. Plasma samples were obtained before dosing (t=0) and at the end of the experiment. T4 competition assays by native gel electrophoresis were performed in plasma following the same protocol as in Fig. 4a. At basal conditions (t=0), around 40% of the total radioactivity was associated with the TTR band in samples from all animals.
Plasma samples were treated with radiolabelled T4 and subjected to native PAGE. The fraction of radiolabelled T4 bound to the band corresponding to TTR is represented. Error bars indicate s.e.m. (n=4). (b) TTR tetramer stability in the plasma of control and tolcapone-treated transgenic mice was assessed by IEF under semi-denaturing conditions. The ratio between the TTR tetramers and the rest of the TTR species in the IEF gels was calculated for controls and tolcapone-treated mice. The data are expressed as fold increase of the ratio TTR tetramer/total TTR with respect to samples from vehicle-treated animals. ***P<0.001 and **P<0.01 (Student's t-test). Error bars indicate s.e.m. (n=3). […] TTR stabilization was quantified by immunoturbidity after urea denaturation with subsequent crosslinking with glutaraldehyde as detailed in the experimental section. […] White bars correspond to plasma samples crosslinked 0 h after urea addition, black bars correspond to plasma samples crosslinked after 48 h of urea denaturation. […]

[4] = tested on: T2, TTR in human plasma (WT-TTR and V30M-TTR); assay: [125I]T4 competition in human plasma, native gel electrophoresis; format: binding; details: 1 mM; plasma from normal (WT-TTR) and V30M-TTR FAP patient; 1 h RT
T2 construct: human plasma from a normal (WT-TTR) and from an FAP patient carrying the V30M-TTR mutation; from tissue; host or cells: human plasma of normal donors and of V30M-TTR carriers
Excerpt: Error bars indicate s.e.m. (n=3). […] Error bars indicate s.e.m. (n=3).

[5] = Tolcapone quantification in human plasma after oral administration (UPLC-MS/MS); format: in vivo; details: 200 mg
Experimental: TTR stabilization in vivo was measured using an immunoturbidimetric assay as in Fig. 4c. The fraction of initial tetramer concentration (FOI) was determined in triplicate for each sample (FOI=TTR tetramer after 48 h urea treatment/TTR tetramer at time 0 in the presence of urea).
Blood was collected 30 min before administration and 2 h after the dose in BD Vacutainer tubes with Lithium-Heparin and gel for plasma separation, following the manufacturer's instructions. Briefly, after gently mixing the tubes by inversion, blood was centrifuged at 1,300g for 10 min at 20 °C. Supernatants were collected and immediately stored at −80 °C until analysis.
Extracted samples were analysed on a Waters Acquity UPLC coupled with a Waters Xevo TQ MS triple quadrupole mass spectrometer. Chromatographic separation was achieved on an Acquity HSS C18 column using a gradient elution with the mobile phase of methanol and 0.1% formic acid in water.

[6] = no reference given; cited from earlier work
[7] = target: T3, WT-TTR (Homo sapiens, UniProt P02766); assay: TTR stabilization in urea, Trp fluorescence; format: biochemical; set-up: made in house; host or cells: Escherichia coli BL21(DE3), pET expression system; details: 72 h; for WT-tetramer unfolded: WT-TTR 1.8 μM, 6.5 M urea, RT
Experimental: In urea, TTR tetramer dissociation precedes monomer unfolding, a process easily tracked by monitoring changes in intrinsic Trp fluorescence.
At high denaturant concentrations, the rate of TTR tetramer dissociation is linked irreversibly to monomer unfolding. […] Intrinsic fluorescence was recorded after 72 h.
Urea was added to attain a range of final concentrations (0–9 M) and the samples were incubated for 72 h at RT. Fluorescence intensity measurements were performed on a Jasco FP-8200 Spectrofluorometer. Trp fluorescence was obtained by exciting the samples at 280 nm and emission was collected from 300 to 400 nm. The fluorescence intensity ratio 355/335 nm was plotted against urea concentration as a sensor of folded protein, which for TTR in urea is equivalent to tetramer integrity. […] The fraction of unfolded TTR was measured and calculated as above. The TTR fluorescence after incubation at RT for 72 h in 9 M urea was considered to correspond to that of the unfolded state.

[8] = target: T3, WT-TTR; assay: Isothermal titration calorimetry, WT-TTR
[9] = general model, two ligand-binding sites

## Cc1ccc(C(=O)c2cc(O)c(O)c([N+](=O)[O-])c2)cc1 [tolcapone]
[1]
  reduction in Caspase-3 activation: 27.8%±6.1
[2]
  TTR tetramer stabilization in plasma: stabilized WT and V30M-TTR tetramers in plasma
[3]
  amount of T4 remaining bound to TTR at the end of treatment: decreased in a dose-dependent manner
[4]
  radioactive T4-TTR band in the presence of compound: no longer visible
[5]
  concentration at 2 h: 13.6 µM
[6]
  half-life in plasma: 2 to 3 h
[7]; 2 molar equivalents
  WT-tetramer unfolded: 33.8%
[7]; 4 molar equivalents
  WT-tetramer unfolded: 8%
[7]; 10 molar equivalents, 8 M urea
  TTR remaining in the native state: more than 80%
[8]; first ligand
  TΔs1 binding entropy: 1.8 kcal/mol
  Δh1 site-specific binding enthalpy: -8.7 kcal/mol
[8]; [9]
  ΔH1 overall binding enthalpy: -8.7 kcal/mol
  ΔH2 overall binding enthalpy: -18.4 kcal/mol
  β2 overall association constant: 7.9 × 10^14 M^−2
[8]; second ligand
  TΔs2 binding entropy: 0.2 kcal/mol
  Δh2 site-specific binding enthalpy: -9.7 kcal/mol
